The source of these data is publication PMC9513367 (2022).

In assay [1] the test system is Apt-M13 (DNA, aptamer) CGGGGGACGTTGCCAACGGTAACGTCGTTGGAT
Nature of the assay: AuNP colorimetric (A650/A520). The following applies: NaCl 36.7 mM added, water, room temperature.

In assay [2] the test system is Apt1 (DNA, aptamer) ACACGACGAGGGACGAGGAGTACTTGCCAACGATAACGTCGTTGGATCTGTCTGTGCCC
Nature of the assay: AuNP colorimetric (A650/A520). The following applies: NaCl 36.7 mM added, water, room temperature.

The test system of assay [3] is Apt-T2 (DNA, aptamer) CGAGGGACGTTGCCAACGATAACGTCGTTGGAT
Put plainly: AuNP colorimetric (A650/A520). The following applies: NaCl 36.7 mM added, water, room temperature.

Assay [4] deals with Apt-T1 (DNA, aptamer) CGAGGGACGAGGAGTACTTGCCAACGATAACGTCGTTGGAT
Nature of the assay: AuNP colorimetric (A650/A520). Particulars: NaCl 36.7 mM added, water, room temperature.

The test system of assay [5] is Apt-M13 (DNA, aptamer) CGGGGGACGTTGCCAACGGTAACGTCGTTGGAT
Put plainly: fluorescence enhancement of dye. The following applies: water, room temperature; aptamer 50 nM stock, 1X SGI.

Assay [6] concerns Apt-T3 (DNA, aptamer) TTGCCAACGATAACGTCGTTGGAT
Nature of the assay: AuNP colorimetric (A650/A520). The following applies: NaCl 36.7 mM added; water, room temperature; DEX titration.

The subject of assay [7] is Apt-M9 (DNA, aptamer) CGAGGGACGTTGGCAACGGTAACGTCGTTGGAT
Put plainly: AuNP colorimetric (A650/A520). Particulars: NaCl 36.7 mM added; water, room temperature; DEX titration.

In assay [8] the test system is Apt-M11 (DNA, aptamer) CGAGGGACGTTGCCAACGGTAAGGTCGTTGGAT
Put plainly: AuNP colorimetric (A650/A520). Particulars: NaCl 36.7 mM added; water, room temperature; DEX titration.

For assay [9], the system named is Apt-M12 (DNA, aptamer) CGAGGGACGTTGCCAACGGTAACGTGGTTGGAT
Nature of the assay: AuNP colorimetric (A650/A520). The following applies: NaCl 36.7 mM added; water, room temperature; DEX titration.

Assay [10] concerns Apt-M15 (DNA, aptamer) CGAGGGACGTTGCCAACGATAAGGTGGTTGGAT
Nature of the assay: AuNP colorimetric (A650/A520). Particulars: NaCl 36.7 mM added; water, room temperature; DEX titration.

The subject of assay [11] is FAM-Apt-M13 (DNA, aptamer) CGGGGGACGTTGCCAACGGTAACGTCGTTGGAT
Nature of the assay: graphene oxide fluorescence, saturation fit. The following applies: water, 37 °C 2 h; aptamer 10-250 nM varied, DEX 1.5 μM fixed; GO:aptamer mass 200:1.

The test system of assay [12] is FAM-Apt1 (DNA, aptamer) ACACGACGAGGGACGAGGAGTACTTGCCAACGATAACGTCGTTGGATCTGTCTGTGCCC
Put plainly: graphene oxide fluorescence, saturation fit. Particulars: water, 37 °C 2 h; aptamer 10-250 nM varied, DEX 1.5 μM fixed; GO:aptamer mass 200:1.

For `CC(=O)OCC(=O)[C@@]1(O)CC[C@H]2[C@@H]3CCC4=CC(=O)C=C[C@]4(C)[C@H]3C(=O)C[C@@]21C`, the binding entry in assay [1] (50 nmol/mL analog tested), in assay [2] (100 nmol/mL analog tested) and in assay [3] (100 nmol/mL analog tested) was “no” throughout.
Regarding `CCCC1O[C@@H]2C[C@H]3[C@@H]4CCC5=CC(=O)C=C[C@]5(C)[C@H]4[C@@H](O)C[C@]3(C)[C@]2(C(=O)CO)O1` (stereo partly shown), the binding entry in assay [1] (50 nmol/mL analog tested) is “no”; in [2] (100 nmol/mL analog tested), “no”; in assay [3] (100 nmol/mL analog tested) it was “no”; in [4] (100 nmol/mL), “yes”.
For `CCCN(CCCN(C)C)c1cc(C=C2Sc3ccccc3N2C)c2ccccc2[n+]1-c1ccccc1`, in [5], the binding entry was “yes”.
The term Kd denotes the constant that tells how readily two partners part at equilibrium. Read a high Kd as lower affinity. For the molecule `C[C@@H]1C[C@H]2[C@@H]3CCC4=CC(=O)C=C[C@]4(C)[C@@]3(F)[C@@H](O)C[C@]2(C)[C@@]1(O)C(=O)CO`, the binding result in [1] (DEX titration), in [2] (DEX titration), in [3] (DEX titration), in assay [4] (DEX titration), in assay [6] and in assay [7] was “yes” in each case. For the same molecule, the binding entry in [8], in [9] and in [10] was “yes” in each case. The results for the Kd in assay [11] and in [12] were 200 ± 93 nM and 441 ± 180 nM, respectively.
Take `C[C@]12CCC(=O)C=C1CC[C@@H]1[C@@H]2[C@@H](O)C[C@@]2(C)[C@H]1CC[C@]2(O)C(=O)CO`: the binding result in assay [1] (50 nmol/mL analog tested), in [2] (100 nmol/mL analog tested) and in [3] (100 nmol/mL analog tested) was “no” in each case.
Regarding `O=C(N[C@H](CO)[C@H](O)c1ccc([N+](=O)[O-])cc1)C(Cl)Cl`, the binding entry in [1] (50 nmol/mL analog tested), in [2] (100 nmol/mL analog tested) and in assay [3] (100 nmol/mL analog tested) was “no” each time.
